Activity calls are given as the source filed them. The rule behind the calls is not given here.

Data set [1] has as its target T1, Mitogen-activated protein kinase kinase kinase 5 (Homo sapiens, UniProt Q99683).
T1 sequence (Q99683 whole entry): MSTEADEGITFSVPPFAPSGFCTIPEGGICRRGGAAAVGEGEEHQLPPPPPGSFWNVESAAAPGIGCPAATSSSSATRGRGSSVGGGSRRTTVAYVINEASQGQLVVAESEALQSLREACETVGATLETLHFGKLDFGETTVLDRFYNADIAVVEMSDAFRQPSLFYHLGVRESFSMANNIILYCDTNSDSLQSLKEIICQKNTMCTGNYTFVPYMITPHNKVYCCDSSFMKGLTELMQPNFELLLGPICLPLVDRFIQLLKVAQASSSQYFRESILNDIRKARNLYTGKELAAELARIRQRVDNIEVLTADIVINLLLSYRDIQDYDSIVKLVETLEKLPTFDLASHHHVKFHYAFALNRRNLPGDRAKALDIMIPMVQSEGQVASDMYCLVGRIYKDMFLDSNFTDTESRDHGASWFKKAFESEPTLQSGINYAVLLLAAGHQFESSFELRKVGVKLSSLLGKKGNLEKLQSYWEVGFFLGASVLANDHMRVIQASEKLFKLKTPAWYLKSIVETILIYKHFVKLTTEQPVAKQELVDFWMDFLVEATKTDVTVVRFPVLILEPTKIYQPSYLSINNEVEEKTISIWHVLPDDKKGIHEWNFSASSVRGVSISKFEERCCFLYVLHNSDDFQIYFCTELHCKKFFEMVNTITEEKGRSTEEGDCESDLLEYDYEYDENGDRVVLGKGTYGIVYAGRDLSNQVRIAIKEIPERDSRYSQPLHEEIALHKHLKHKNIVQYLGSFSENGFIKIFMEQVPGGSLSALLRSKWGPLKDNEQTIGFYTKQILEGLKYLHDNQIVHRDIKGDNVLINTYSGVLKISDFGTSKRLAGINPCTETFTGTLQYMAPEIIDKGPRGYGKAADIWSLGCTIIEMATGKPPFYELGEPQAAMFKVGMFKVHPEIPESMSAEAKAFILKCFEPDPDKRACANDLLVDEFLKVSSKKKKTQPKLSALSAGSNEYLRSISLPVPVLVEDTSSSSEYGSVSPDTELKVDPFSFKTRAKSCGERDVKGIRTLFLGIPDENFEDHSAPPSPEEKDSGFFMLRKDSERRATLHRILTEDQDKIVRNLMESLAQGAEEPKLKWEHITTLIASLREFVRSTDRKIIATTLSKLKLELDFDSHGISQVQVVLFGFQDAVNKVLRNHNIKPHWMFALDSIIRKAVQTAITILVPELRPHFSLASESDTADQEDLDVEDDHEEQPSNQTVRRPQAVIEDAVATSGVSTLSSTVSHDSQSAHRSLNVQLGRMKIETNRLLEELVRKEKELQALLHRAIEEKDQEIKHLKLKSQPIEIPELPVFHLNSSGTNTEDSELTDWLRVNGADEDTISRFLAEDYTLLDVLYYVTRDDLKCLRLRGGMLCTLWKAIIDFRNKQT
Put plainly: Inhibition of ASK1 in human HEK293 cells transfected with AP1 assessed as inhibition of AP1-induced firefly luciferase activity preincubated for 1 hr followed by PMA stimulation and measured after 6 hrs by luciferase reporter assay. It counts as cell-based.

In data set [2] the target is T1, Mitogen-activated protein kinase kinase kinase 5. Put plainly: Inhibition of human full length recombinant ASK1 using STK-Substrate-3 biotin as substrate in presence of ATP measured after 2 hrs by […] kinase assay.
The test system of data set [3] is HT-29. Put plainly: Antiinflammatory activity in human HT-29 cells assessed as suppression of […]-stimulated p-JNK expression by Western blot analysis. It counts as functional, cell-based.
For data set [4], the system named is HT-29. Put plainly: Antiapoptotic activity against in human HT-29 cells assessed as inhibition of TNFalpha-induced down regulation of Bcl2 expression by Western blot analysis. It counts as functional, cell-based. A general note: Immunoblotting shows a protein as a band on a membrane.
Data set [5] has as its system HT-29. Put plainly: Antiapoptotic activity against in human HT-29 cells assessed as inhibition of TNFalpha-induced upregulation of Bax expression by Western blot analysis. It counts as functional, cell-based.
Data set [6] has as its system HT-29. The data set can be described thus: Antiinflammatory activity in human HT-29 cells assessed as suppression of […]-stimulated p-ASK1 expression by Western blot analysis. It counts as functional, cell-based.
For data set [7], the system named is HT-29. Put plainly: Induction cell survival in TNFalpha-induced human HT-29 cells at 10 uM pretreated for 24 hrs followed by TNFalpha stimulation measured after 2 hrs by CCK8 assay. It counts as functional, cell-based. For orientation: Tetrazolium dyes change colour on reduction, which living cells bring about.
The subject of data set [8] is HT-29. The data set can be described thus: Cytotoxicity against human HT-29 cells assessed as cell survival at 25 uM incubated for 24 hrs by CCK8 assay. Type of data set: cell-based. Conditions: ht-29, 24 h.
Data set [9] relates to HT-29. Put plainly: Antiinflammatory activity in human HT-29 cells assessed as suppression of […]-stimulated p-P38 expression by Western blot analysis. Type of data set: functional, cell-based.
The subject of data set [10] is HT-29. Put plainly: Antiapoptotic activity against in human HT-29 cells assessed as inhibition of TNFalpha-induced Bax/ Bcl2 ratio by Western blot analysis. Type of data set: functional, cell-based.
The test system of data set [11] is HT-29. The data set can be described thus: Antiapoptotic activity against in human HT-29 cells assessed as inhibition of TNFalpha-induced caspase 3 activity by Western blot analysis. Type of data set: functional, cell-based.

For `CC(C)n1cnnc1-c1ccc2[nH]nc(-c3cccc(-c4cnn(C5CCOCC5)c4)c3)c2c1`, the results for the IC50 in data set [1] and in data set [2] were 12.1 µM and 0.0501 µM, respectively.

Consider `c1cc(-c2n[nH]c3ccc(-c4cn[nH]c4)cc23)cc(-n2cnc(C3CC3)c2)c1`, for which the half-maximal inhibitory concentration (IC50) in data set [2] worked out at 0.275 µM.

Regarding `c1cc(-c2n[nH]c3ccc(-c4nncn4C4CC4)cc23)cc(-n2cnc(C3CC3)c2)c1`, the IC50 in [1] worked out at 7.04 µM; in [2], 0.05 µM.

Take `CCS(=O)(=O)Nc1cccc(-c2n[nH]c3ccc(-c4nncn4C(C)C)cc23)c1`: in data set [2], the IC50 amounted to 0.0198 µM.

For the molecule `CC(C)n1cnnc1-c1ccc2[nH]nc(-c3cccc(-n4cnc(C5CC5)c4)c3)c2c1`, the IC50 in [2] came to 0.0622 µM.

Regarding `c1cc(-c2n[nH]c3ccc(-c4nncn4C4CCCC4)cc23)cc(-n2cnc(C3CC3)c2)c1`, the IC50 was 5.5 µM in data set [1] and 0.0541 µM in data set [2].

As to `CCOC(C)n1cc(-c2cccc(-c3n[nH]c4ccc(-c5nncn5C(C)C)cc34)c2)cn1` (stereo unspecified), the result in the data set with HT-29 [3], in the data set on HT-29 [4], in the data set with HT-29 [5], in the data set with HT-29 [6], in the data set with HT-29 [7] and in the data set on HT-29 [9] was Active. In addition, the outcome in the data set with HT-29 [10] and in the data set on HT-29 [11] was Active. The IC50 in data set [1] came out at 4.46 µM; in data set [2] it was 0.0299 µM. Moreover, in the data set on HT-29 [8], the Activity result is given as “Non-Toxic”.

With `CC(C)n1cnnc1-c1ccc2[nH]nc(-c3cccc(C(=O)Nc4cnn(C)c4)c3)c2c1`, the 50% inhibitory concentration (IC50) in [2] came out at 0.144 µM.

Consider `c1cc(-c2n[nH]c3ccc(-c4nncn4C4CCC4)cc23)cc(-n2cnc(C3CC3)c2)c1`, for which the IC50 is 7.28 µM in data set [1] and 0.07 µM in data set [2].

With `CC(C)n1cnnc1-c1ccc2[nH]nc(-c3cccc(NC(=O)c4ccc(C(F)(F)F)cc4)c3)c2c1`, the IC50 in [2] amounted to 0.197 µM.

For `COCn1cc(-c2cccc(-c3n[nH]c4ccc(-c5nncn5C(C)C)cc34)c2)cn1`, the half-inhibitory concentration (IC50) was 9.81 µM in data set [1] and 0.0269 µM in data set [2].

As to `CC(C)n1cnnc1-c1ccc2[nH]nc(-c3cccc(S(C)(=O)=O)c3)c2c1`, the IC50 in data set [2] came out at 0.733 µM.

On to `COc1cc(-c2n[nH]c3ccc(-c4nncn4C(C)C)cc23)cc(-n2cnc(C3CC3)c2)c1`, for which the IC50 in data set [1] was 11.3 µM; in data set [2] it was 0.0486 µM.

As to `CC(C)n1cnnc1-c1ccc2[nH]nc(-c3cccc(-c4ccnn4C)c3)c2c1`, the half-maximal inhibitory concentration (IC50) in data set [2] was 0.855 µM.

Take `c1cc(-c2n[nH]c3ccc(-c4nncn4C4CCCCC4)cc23)cc(-n2cnc(C3CC3)c2)c1`: the 50% inhibitory concentration (IC50) in data set [2] was 0.243 µM.

On to `CC(C)n1cnnc1-c1ccc2[nH]nc(-c3ccc(N4CCOCC4)c(-n4cnc(C5CC5)c4)c3)c2c1`, for which the figures for the half-maximal inhibitory concentration (IC50) in [1] and in data set [2] were 11.6 µM and 0.0318 µM, respectively.

In the case of `CC(C)n1cnnc1-c1ccc2[nH]nc(-c3cccc(-c4cnn(C)c4)c3)c2c1`, the IC50 in [1] was 8.33 µM; in data set [2], 0.0636 µM.

`CC(C)n1cnnc1-c1ccc2[nH]nc(-c3cc(N4CCOCC4)cc(-n4cnc(C5CC5)c4)c3)c2c1`: the IC50 in [2] was 0.0751 µM.

As for `O=C(Nc1cccc(-c2n[nH]c3ccc(-c4nnc[nH]4)cc23)c1)c1ccc(C(F)(F)F)cc1`, in [2], the 50% inhibitory concentration (IC50) was 0.532 µM.

For `CC(C)n1cnnc1-c1ccc2[nH]nc(-c3cccc(C(=O)NC4CC4)c3)c2c1`, the IC50 in data set [2] turned out to be 0.271 µM.

For `Cc1ccc(-c2n[nH]c3ccc(-c4nncn4C(C)C)cc23)cc1-n1cnc(C2CC2)c1`, the concentration for half-maximal inhibition (IC50) in [1] is 8.73 µM; in [2], 0.0569 µM.

For the molecule `CC(C)n1cnnc1-c1ccc2[nH]nc(-c3cccc(-c4cccnc4)c3)c2c1`, in [2], the IC50 is 0.283 µM.

Regarding `CC(C)n1cnnc1-c1ccc2[nH]nc(-c3cccc(C(N)=O)c3)c2c1`, the IC50 in data set [2] was determined as 0.0742 µM.

Turning to `CCOC(C)n1cc(-c2cncc(-c3n[nH]c4ccc(-c5nncn5C(C)C)cc34)c2)cn1` (stereo unspecified), in data set [2], the IC50 turned out to be 0.277 µM.

Turning to `COc1ccc(-n2cnc(C3CC3)c2)cc1-c1n[nH]c2ccc(-c3nncn3C(C)C)cc12`, the half-inhibitory concentration (IC50) in data set [2] was found to be 0.27 µM.

As to `CC(C)n1cnnc1-c1ccc2[nH]nc(-c3cccc(-n4cnc(C5CC5)n4)c3)c2c1`, the IC50 in data set [1] turned out to be 8.88 µM; in data set [2], 0.037 µM.

As for `Cc1cc(F)c(C(=O)Nc2cccc(-c3nncn3C(C)C)n2)cc1-n1cnc(C2CC2)c1` [SELONSERTIB], the result in the data set with HT-29 [3], in the data set on HT-29 [4], in the data set with HT-29 [5], with HT-29 [6], in the data set with HT-29 [7] and in the data set with HT-29 [9] was Active. For the same molecule, the result in the data set with HT-29 [10] and in the data set on HT-29 [11] was Active. The Activity result in the data set with HT-29 [8] is “Non-Toxic”.

Turning to `COCCNC(=O)c1cccc(-c2n[nH]c3ccc(-c4nncn4C(C)C)cc23)c1`, the IC50 in [2] worked out at 0.245 µM.

A word on the IC50: it is the concentration needed to halve the response being measured.

The values are drawn from ChEMBL document CHEMBL4837198, “Design, synthesis and biological evaluation of 1H-indazole derivatives as novel ASK1 inhibitors” (Eur J Med Chem, 2021).
